{"source": "patent US6447797B2", "about": "“Antibacterial phosphoinositides” (Abbott Laboratories, priority 1998, dated 2002)", "key": {"[1]": {"tested_on": "Haemophilus influenzae nontypeable bacterium strain adhering to Detroit 562 human pharynx carcinoma cells (DT 562)", "experiment": "Inhibition of adhesion of 111-In radiolabeled Haemophilus influenzae to DT 562 human pharynx cells", "assay_type": "cell-based", "details": "for Activity in adhesion bioassay (in words): adhesion of H. influenzae to human pharynx cells", "from_the_text": "To determine the ability of various phosphoinositides to prevent the adhesion of Haemophilus influenzae to human nasopharynx cells, the following procedure was used. Detroit 562 human pharynx carcinoma cells (DT 562) were obtained from the American Culture Type Collection. A Haemophilus influenzae nontypeable bacterium strain, which was isolated from the middle ear of an infected child, was obtained from Dr. Lauren Bakaletz of The Ohio State University in Columbus, Ohio.\nThe DT 562 cells were seeded into Costar 96 well plates at a density of 20,000 to 25,000 cells per well and were cultured in Dulbeco's modified Eagle Medium, available from Grand Island Biological Company. The cells were supplemented with 10% fetal bovine serum (FBS), available from Hyclone. The plates were incubated in a humidified atmosphere of 95% air and 5% carbon dioxide at 37° C. Plates containing cells were washed three times with 20 μL of Hanks Balanced Saline Solution (HBSS), available from Sigma Chemical Company of St. Louis, Mo., to remove serum proteins before the addition of bacteria in adhesion assays.\nHaemophilus influenzae was streaked onto Chocolate agar plates, available from Becto Dickinson Diagnostic Instrument System of Sparks, Maryland, from frozen aliquots of a low passage number. The plates were then incubated at 37° C. in a humidified atmosphere of 95% air and 5% carbon dioxide for 18 hours to obtain logarithmically growing cultures. Bacteria harvested in phosphate buffered solution (PBS) supplemented with 0.05% bovine serum albumin (BSA), available from Miles Inc. of Kankakee, Ill., were centrifuged and resuspended in a volume of PBS/BSA yielding an optical density of 2.4 at a wavelength of 660 nm. ^111-Indium-oxine (^111-In), a high-energy, short-lived tracer was utilized to radiolabel the bacteria. Fifty μCi of ^111-In solution was added to 2.5 mL of the bacterial suspension and incubated for 20 minutes at 37° C. The radiolabeled bacteria were then washed two times with 10 mL HBSS to remove unbound ^111-In and resuspended in 5 mL HBSS supplemented with 30 mM 2-hydroxyethylpiperazine-N′-2-ethane sulfonic acid buffer, available from Life Technologies, a producer of Gibco BRL Products, of Grand Island, N.Y. Twenty-five μL of the ^111-In labeled bacterial suspension was preincubated with 25 μL of the test chemical in a polypropylene 96 well plate, available from Costar, for 15 minutes at 37° C. to allow binding of the test agent to the Haemophilus influenzae bacterium.\nTo determine the adhesion quantitation, the following procedure was used. Twenty-five μL of the preincubation mixture containing radiolabeled bacteria and the test chemical were pipetted into each well of the assay plate containing DT 562 cells. The assay plate was incubated for about 15 to about 20 minutes at 37° C. to allow adhesion of the bacteria to the cell monolayer. Nonadherent bacteria were removed by washing the plate three times in HBSS. The assay was terminated by the addition of 100 μL of 0.05 N sodium hydroxide to disrupt the cell monolayer and the adhering of the Haemophilus influenzae bacterium. The contents of each well were then placed in Cobra polypropylene tubes and counted on a Cobra Gamma Counter, available from Packard Bell. After background radiation was subtracted from each well, the average count of four replicates (per sample) was calculated. Results are presented in Table 1 as the percent of inhibition of bacterial adhesion, as compared to bacterial attachment, in control wells containing no test chemical and in which the percent of inhibition is zero."}, "[2]": {"tested_on": "nontypeable Haemophilus influenzae", "experiment": "Neonatal rat model of nasopharyngeal colonisation by nontypeable Haemophilus influenzae", "assay_type": "in vivo", "details": "for H.I. Recovered Log10 (CFU/mL): intranasal, nasal wash 24 hours after administration, 10 rat pups per group", "protocol": "The attachment of Haemophilus influenzae to a mammal's nasopharynx area is believed to be the first stage of a bacterial infection which can lead to otitis media and other disorders and diseases caused by Haemophilus influenzae. A neonatal rat model was used to test the in vivo activity of phosphoinositides, and more specifically PI-3,4-PP, against nontypeable Haemophilus influenzae .\nIn the test, overnight cultures of nontypeable Haemophilus influenzae were prepared, washed twice and diluted with HBSS to obtain a bacterial suspension of less than 100,000 colony forming units (CFU) per mL. Sample solutions of the PI-3,4-PP were prepared by dissolving in HBSS at 2 mg/mL. The sample solution was mixed with an equal volume (0.5 mL) of the diluted bacterial suspension and incubated for one hour at 37° C. A bacterial control was prepared by mixing and incubating 0.5 mL HBSS with an equal volume of the diluted bacterial suspension. A solvent blank was prepared by incubating 1 mL of HBSS under the same conditions.\nIn the test, the experimental and control mixtures were used to inoculate 24-hour-old or younger rat pups at 10 μL each intranasally. Twenty-four hours after administration, samples of nasopharyngeal fluid were obtained by the slow instillation of 25 μL of HBSS into the left naris and the initial 10 μL discharge from the right naris was collected for plate count. This procedure insured that the fluid had passed through the nasopharynx. The nasal wash was then spread, or diluted and then spread, onto chocolate agar plates. The plates were incubated at 37° C. overnight and counted for the number of CFU's, an indicator of the number of viable bacteria."}, "[3]": {"details": "Test Level 0.1 mg/mL, vs control wells without test chemical, average of four replicates"}}, "note": "“And” between values parts separate entries of the source, which are not always exact repeats. Identical values can stand only once. “Also recorded” adds a separate entry of the source. Marks after values point to notes of the source that are not given here."}
{"compound": "O=P([O-])(OCC(O)CO)OC1C(O)C(O)C(O)C(O)C1O.[Li+]", "note": "[GPI, 1-(a-glycerophosphopoyl)-D-myo-insoitol lithium salt, reference compound]", "values": [{"measurement": "% Inhibition of bacterial adhesion", "setting": "[1]; Test Level 0.5 mg/mL", "value": "−3", "unit": "%"}, {"measurement": "Activity in adhesion bioassay (in words)", "setting": "[1]", "value": "inactive"}]}
{"compound": "dipalmitoylphosphatidylinositol-3-phosphate ammonium salt [PI-3-P]", "values": [{"measurement": "% Inhibition of bacterial adhesion", "setting": "[1]; [3]", "value": 24, "unit": "%"}, {"measurement": "Activity in adhesion bioassay (in words)", "setting": "[1]", "value": "lower level of activity"}]}
{"compound": "L-a-phosphatidylinositol-4-monophosphate sodium salt [PI-4-P]", "values": [{"measurement": "% Inhibition of bacterial adhesion", "setting": "[1]; [3]", "value": 24, "unit": "%"}, {"measurement": "Activity in adhesion bioassay (in words)", "setting": "[1]", "value": "lower level of activity"}]}
{"compound": "1-D-myo-inositol-1,3,4-triphosphate sodium salt [I-1,3,4-PPP, reference compound]", "values": [{"measurement": "% Inhibition of bacterial adhesion", "setting": "[1]; [3]", "value": "−1", "unit": "%"}, {"measurement": "Activity in adhesion bioassay (in words)", "setting": "[1]", "value": "inactive"}]}
{"compound": "L-a-phosphatidylinositol ammonium salt [PI, reference compound]", "values": [{"measurement": "% Inhibition of bacterial adhesion", "setting": "[1]; [3]", "value": "−2", "unit": "%"}, {"measurement": "Activity in adhesion bioassay (in words)", "setting": "[1]", "value": "inactive"}]}
{"compound": "dipalmitoylphosphatidylinositol-3,4-diphosphate ammonium salt [PI-3,4-PP]", "values": [{"measurement": "% Inhibition of bacterial adhesion", "setting": "[1]; Test Level 0.006 mg/mL", "value": 31, "unit": "%"}, {"measurement": "% Inhibition of bacterial adhesion", "setting": "[1]; Test Level 0.013 mg/mL", "value": 33, "unit": "%"}, {"measurement": "% Inhibition of bacterial adhesion", "setting": "[1]; Test Level 0.025 mg/mL", "value": 58, "unit": "%"}, {"measurement": "% Inhibition of bacterial adhesion", "setting": "[1]; Test Level 0.050 mg/mL, ammonium salt", "value": 80, "unit": "%"}, {"measurement": "% Inhibition of bacterial adhesion", "setting": "[1]; Test Level 0.050 mg/mL, listed as PI-3,4-P, ammonium salt", "value": "about 80%"}, {"measurement": "% Inhibition of bacterial adhesion", "setting": "[1]; Test Level 0.1 mg/mL, vs control wells without test chemical, average of four replicates, ammonium salt", "value": "74% and 81%"}, {"measurement": "Lowest concentration at which activity was exhibited", "setting": "[1]; adhesion inhibition, dose response", "value": 0.006, "unit": "mg/mL"}, {"measurement": "Activity in adhesion bioassay (in words)", "setting": "[1]", "value": "especially active"}, {"measurement": "H.I. Recovered Log10 (CFU/mL)", "setting": "[2]; Trial 1, inoculum dose 53 CFU/pup, 1 mg/mL PI-3,4-PP", "value": "1.34 ± 0.58 Log10 (CFU/mL)"}, {"measurement": "Reduction in the number of bacteria recovered vs untreated group (HI+HBSS)", "setting": "[2]; Trial 2, 1 mg/mL PI-3,4-PP, inoculum dose 630-720 CFU/pup", "value": 0.6, "unit": "log"}, {"measurement": "H.I. Recovered Log10 (CFU/mL)", "setting": "[2]; Trial 2, inoculum dose 630 CFU/pup, 1 mg/mL PI-3,4-PP", "value": "2.54 ± 1.08 Log10 (CFU/mL)"}, {"measurement": "Mode of in vivo activity (in words)", "setting": "[2]; neonatal rats, nasopharynx, ammonium salt", "value": "not bactericidal; also recorded: inhibits the attachment of nontypeable Haemophilus influenzae to nasopharyngeal cells of neonatal rats"}]}
{"compound": "1-D-myo-inositol-1,2,6-triphosphate sodium salt [I-1,2,6-PPP, reference compound]", "values": [{"measurement": "% Inhibition of bacterial adhesion", "setting": "[1]; [3]", "value": "6* %"}, {"measurement": "Activity in adhesion bioassay (in words)", "setting": "[1]", "value": "inactive"}]}
